Legend:
[1] = Blood hematology and biochemistry after intravenous injection; assay type: in vivo; details: 250 mg/kg IV; 24 h from injection
[2] = biological target: T1, Opioid Receptor Kappa 1 (OPRK1) (Homo sapiens, UniProt P41145); experiment: SAFETYscan GPCR cAMP; assay type: cell-based
T1 construct: host or cells: cAMP Hunter cell lines

[3] = biological target: T2, Opioid Receptor Delta 1 (OPRD1) (Homo sapiens, UniProt P41143); experiment: SAFETYscan GPCR cAMP; assay type: cell-based
T2 construct: host or cells: cAMP Hunter cell lines

[4] = biological target: Muscarinic acetylcholine Receptor M1 (CHRM1) (Homo sapiens, UniProt P11229); experiment: cell-based; details: Calcium Flux, read-out: RC50 (the source's name)
[5] = biological target: Histamine Receptor H1 (HRH1) (Homo sapiens, UniProt P35367); experiment: SAFETYscan GPCR Calcium Flux; assay type: cell-based; details: read-out: RC50 (the source's name)
Cyclooxygenase 1 (COX 1) = biological target: T3, Cyclooxygenase 1 (COX 1) (Homo sapiens, UniProt P23219); experiment: biochemical; details: Inhibitor, Enzymatic
T3 construct: purchased BPS Bioscience

[6] = biological target: T4, Muscarinic acetylcholine Receptor M2 (CHRM2) (Homo sapiens, UniProt P08172); experiment: SAFETYscan GPCR cAMP; assay type: cell-based
T4 construct: host or cells: cAMP Hunter cell lines

[7] = biological target: A tetrodotoxin-resistant voltage-gated sodium channel (NAVI1.5) (Homo sapiens, UniProt Q14524); experiment: cell-based
[8] = biological target: 5-Hydroxy tryptamine (Serotonin) Receptor 2A (HTR2A) (Homo sapiens, UniProt P28223); experiment: SAFETYscan GPCR Calcium Flux; assay type: cell-based
[9] = biological target: Muscarinic acetylcholine Receptor M3 (CHRM3) (Homo sapiens, UniProt P20309); experiment: cell-based; details: Calcium Flux, read-out: RC50 (the source's name)
[10] = biological target: T5, Nicotinic acetylcholine Receptor alpha-4 beta-2 (nAChR(a4/b2)) (Homo sapiens, UniProt P17787+P43681); experiment: cell-based; details: Ion channel, read-out: RC50 (the source's name)
T5 construct: host or cells: unnamed DiscoverX cell line

[11] = test system: adult rat spinal cord primary cultures; experiment: Spinal cord neurons neurite outgrowth assay; assay type: cell-based; details: 10 μM HU-MCA-13
Protocol: To study the effect of HU-MCA-13 on adult rat spinal cord primary cultures in vitro, we developed a purification procedure that yields enriched different types of spinal cord neuronal cultures. This neurotropic assay was performed using vehicle 1% DMSO in DMEM as control and 10 μM HU-MCA-13. The results in Figure 1 bottom row and Figure 3D clearly indicate that in control there was very poor spontaneous neurite outgrowth of a total length of about 180 μm and NGF induced neurite outgrowth to a total length of about 800 μm. Similarly, HU-MCA-13 induced a neurite outgrowth of 600 μm. Figure 2B indicates cytoskeletal-tubulin protein expression in the cultured neurons. These findings further extend the neurotropic effect of HU-MCA-13 to spinal cord neurons, in addition to DRGs and PC12 cells.
(§1) Spinal cords were isolated from adult rats (4–6 months old), and the meninges were removed from the spinal cord. The spinal cord was then cut into small pieces and collected in cold Hibernate A (Brainbits, Springfield, IL, USA), glutamine (0.5 mM), and B27 (Invitrogen, Carlsbad, CA). […] Neurite outgrowth was measured and presented as mean length of a neurite (microns). To measure neuronal survival, 450 cells were counted in 10 randomly chosen microscope fields of a known area in each of the three dishes per condition using a 20× objective and phase-contrast optics. […]

[12] = test system: neurons from the spinal cord; experiment: Spinal cord neuron survival; assay type: cell-based, rat; details: in the presence of HU-MCA-13; 48 h in culture
Protocol: We also examined whether HU-MCA-13 would promote the survival of neurons from the spinal cord, by counting the number of neurons remaining after 48 h in culture. From our counts we estimated that 58 ± 10% of the neurons present at 3 h after plating survived for 48 h in the presence of HU-MCA-13, compared with only 35 ± 5% for neurons cultured without HU-MCA-13.
as §1, with “CA). Briefly, dissected pieces of adult rat spinal cord tissue were maintained in phosphate-buffered saline (PBS) without Ca^2+ and Mg^2+ and pooled together and transferred to an enzymatic dissociation media containing 20 IU/ml papain in Earle’s balanced salt solution (Worthington Biochemical, Freehold, NJ) and incubated for 30 min at 37 °C.” for “CA).”

Cyclooxygenase 2 (COX 2) = biological target: T6, Cyclooxygenase 2 (COX 2) (Homo sapiens, UniProt P35354); experiment: biochemical; details: Inhibitor, Enzymatic
T6 construct: purchased BPS Bioscience

[13] = test system: PGE2 production in PC12 cells; experiment: PGE2 production measured by ELISA; details: different concentrations of HU-MCA-13, dose-dependent; 24 h
[14] = biological target: T7, 5-Hydroxy-tryptamine (Serotonin) Receptor 3A (HTR3A) (Homo sapiens, UniProt P46098); experiment: SAFETYscan Ion channel assay; assay type: cell-based
T7 construct: host or cells: unnamed DiscoverX cell line

[15] = 10 μM, read-out: MCA-13 Max. Responce
[16] = read-out: RC50 (the source's name)

Chain of Muscarinic acetylcholine Receptor M3 (CHRM3) (P20309 whole entry): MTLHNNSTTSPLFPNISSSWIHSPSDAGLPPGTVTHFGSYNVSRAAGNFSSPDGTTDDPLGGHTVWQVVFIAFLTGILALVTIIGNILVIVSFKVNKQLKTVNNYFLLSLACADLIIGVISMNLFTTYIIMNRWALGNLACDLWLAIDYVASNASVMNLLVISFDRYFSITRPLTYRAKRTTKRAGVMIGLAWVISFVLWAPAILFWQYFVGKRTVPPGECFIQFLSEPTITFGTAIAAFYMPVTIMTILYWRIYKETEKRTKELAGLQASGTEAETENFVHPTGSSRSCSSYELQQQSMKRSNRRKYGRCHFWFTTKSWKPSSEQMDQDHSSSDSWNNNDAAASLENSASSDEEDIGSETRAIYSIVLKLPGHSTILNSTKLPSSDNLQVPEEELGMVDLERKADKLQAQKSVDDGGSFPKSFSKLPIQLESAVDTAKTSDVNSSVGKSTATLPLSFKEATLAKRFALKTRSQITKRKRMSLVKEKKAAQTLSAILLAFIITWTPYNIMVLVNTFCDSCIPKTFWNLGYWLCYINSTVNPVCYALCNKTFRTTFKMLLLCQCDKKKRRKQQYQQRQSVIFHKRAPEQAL
T2 sequence (P41143 whole entry): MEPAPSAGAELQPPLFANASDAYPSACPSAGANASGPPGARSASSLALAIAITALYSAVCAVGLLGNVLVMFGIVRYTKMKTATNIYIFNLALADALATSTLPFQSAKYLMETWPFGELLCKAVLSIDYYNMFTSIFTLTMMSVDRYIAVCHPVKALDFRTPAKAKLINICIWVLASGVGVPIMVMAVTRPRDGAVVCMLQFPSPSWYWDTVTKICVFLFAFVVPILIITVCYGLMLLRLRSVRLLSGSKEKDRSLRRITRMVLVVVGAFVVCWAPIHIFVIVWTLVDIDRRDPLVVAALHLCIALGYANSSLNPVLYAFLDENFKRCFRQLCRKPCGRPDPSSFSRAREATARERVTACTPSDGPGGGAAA
T3 sequence (P23219 24-599): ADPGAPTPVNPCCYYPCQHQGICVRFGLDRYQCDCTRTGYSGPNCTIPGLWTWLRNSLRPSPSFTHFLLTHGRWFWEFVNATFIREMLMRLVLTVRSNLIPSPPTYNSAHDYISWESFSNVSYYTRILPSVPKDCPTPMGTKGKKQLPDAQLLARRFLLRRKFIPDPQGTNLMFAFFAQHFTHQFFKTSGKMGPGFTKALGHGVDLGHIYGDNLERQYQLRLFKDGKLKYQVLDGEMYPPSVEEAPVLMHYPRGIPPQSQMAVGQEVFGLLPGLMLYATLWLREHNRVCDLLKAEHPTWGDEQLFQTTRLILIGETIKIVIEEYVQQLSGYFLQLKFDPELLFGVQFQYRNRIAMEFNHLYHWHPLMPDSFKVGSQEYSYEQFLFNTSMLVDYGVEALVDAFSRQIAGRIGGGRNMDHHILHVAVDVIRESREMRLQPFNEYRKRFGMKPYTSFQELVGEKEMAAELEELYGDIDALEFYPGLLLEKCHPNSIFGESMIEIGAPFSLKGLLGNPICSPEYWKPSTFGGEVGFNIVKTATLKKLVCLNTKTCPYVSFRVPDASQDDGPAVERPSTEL
Chain of Muscarinic acetylcholine Receptor M1 (CHRM1) (P11229 whole entry): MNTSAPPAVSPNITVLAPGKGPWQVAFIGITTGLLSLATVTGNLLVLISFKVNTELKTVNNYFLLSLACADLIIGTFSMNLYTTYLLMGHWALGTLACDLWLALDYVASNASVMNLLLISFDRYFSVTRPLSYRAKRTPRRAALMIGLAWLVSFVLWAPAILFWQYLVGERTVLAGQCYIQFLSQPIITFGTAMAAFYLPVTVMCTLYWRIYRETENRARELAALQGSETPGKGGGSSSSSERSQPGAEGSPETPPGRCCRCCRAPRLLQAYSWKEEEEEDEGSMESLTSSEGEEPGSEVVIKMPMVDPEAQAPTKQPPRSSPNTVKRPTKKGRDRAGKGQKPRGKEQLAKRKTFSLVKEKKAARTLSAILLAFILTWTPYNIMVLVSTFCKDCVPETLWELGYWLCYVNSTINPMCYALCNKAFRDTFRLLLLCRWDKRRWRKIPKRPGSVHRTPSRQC
T6 sequence (P35354 18-604): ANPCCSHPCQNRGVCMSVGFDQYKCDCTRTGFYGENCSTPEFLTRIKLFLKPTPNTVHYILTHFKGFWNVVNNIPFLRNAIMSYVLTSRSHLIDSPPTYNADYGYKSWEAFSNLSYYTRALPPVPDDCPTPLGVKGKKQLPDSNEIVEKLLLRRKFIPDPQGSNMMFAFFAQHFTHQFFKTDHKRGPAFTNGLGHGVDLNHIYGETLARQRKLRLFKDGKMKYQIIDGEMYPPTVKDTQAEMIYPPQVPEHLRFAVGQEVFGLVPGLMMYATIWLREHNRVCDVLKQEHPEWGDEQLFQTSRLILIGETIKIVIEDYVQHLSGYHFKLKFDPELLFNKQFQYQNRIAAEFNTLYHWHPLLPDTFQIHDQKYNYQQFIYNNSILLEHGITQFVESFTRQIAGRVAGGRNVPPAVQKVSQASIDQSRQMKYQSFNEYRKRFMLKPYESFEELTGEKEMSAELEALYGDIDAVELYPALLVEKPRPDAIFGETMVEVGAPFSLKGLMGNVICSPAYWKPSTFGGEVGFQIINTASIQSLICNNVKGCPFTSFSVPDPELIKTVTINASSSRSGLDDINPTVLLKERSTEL
T1 sequence (P41145 whole entry): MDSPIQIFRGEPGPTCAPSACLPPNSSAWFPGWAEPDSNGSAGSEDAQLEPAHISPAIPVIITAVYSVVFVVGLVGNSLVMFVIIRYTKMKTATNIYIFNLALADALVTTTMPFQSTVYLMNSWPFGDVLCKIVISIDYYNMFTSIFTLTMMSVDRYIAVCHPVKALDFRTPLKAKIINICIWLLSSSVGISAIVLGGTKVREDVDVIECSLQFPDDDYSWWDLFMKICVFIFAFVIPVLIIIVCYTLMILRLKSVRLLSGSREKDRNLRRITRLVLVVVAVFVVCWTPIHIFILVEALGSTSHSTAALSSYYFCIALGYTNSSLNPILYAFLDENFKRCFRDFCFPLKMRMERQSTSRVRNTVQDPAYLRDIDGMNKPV
Chain of Histamine Receptor H1 (HRH1) (P35367 whole entry): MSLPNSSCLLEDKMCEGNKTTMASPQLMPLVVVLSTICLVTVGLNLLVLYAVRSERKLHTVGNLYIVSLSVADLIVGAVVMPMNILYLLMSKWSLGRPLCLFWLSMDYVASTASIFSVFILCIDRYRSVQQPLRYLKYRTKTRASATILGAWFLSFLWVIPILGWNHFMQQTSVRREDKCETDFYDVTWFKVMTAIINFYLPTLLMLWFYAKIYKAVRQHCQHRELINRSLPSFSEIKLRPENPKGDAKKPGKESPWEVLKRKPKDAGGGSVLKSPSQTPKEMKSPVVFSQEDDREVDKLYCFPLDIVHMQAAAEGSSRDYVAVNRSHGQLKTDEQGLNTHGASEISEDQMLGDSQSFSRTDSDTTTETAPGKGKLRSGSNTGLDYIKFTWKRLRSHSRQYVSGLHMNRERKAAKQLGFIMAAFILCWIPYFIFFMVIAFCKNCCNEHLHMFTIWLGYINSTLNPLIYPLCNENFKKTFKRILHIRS
T5 sequence (P43681 29-627 limits assumed): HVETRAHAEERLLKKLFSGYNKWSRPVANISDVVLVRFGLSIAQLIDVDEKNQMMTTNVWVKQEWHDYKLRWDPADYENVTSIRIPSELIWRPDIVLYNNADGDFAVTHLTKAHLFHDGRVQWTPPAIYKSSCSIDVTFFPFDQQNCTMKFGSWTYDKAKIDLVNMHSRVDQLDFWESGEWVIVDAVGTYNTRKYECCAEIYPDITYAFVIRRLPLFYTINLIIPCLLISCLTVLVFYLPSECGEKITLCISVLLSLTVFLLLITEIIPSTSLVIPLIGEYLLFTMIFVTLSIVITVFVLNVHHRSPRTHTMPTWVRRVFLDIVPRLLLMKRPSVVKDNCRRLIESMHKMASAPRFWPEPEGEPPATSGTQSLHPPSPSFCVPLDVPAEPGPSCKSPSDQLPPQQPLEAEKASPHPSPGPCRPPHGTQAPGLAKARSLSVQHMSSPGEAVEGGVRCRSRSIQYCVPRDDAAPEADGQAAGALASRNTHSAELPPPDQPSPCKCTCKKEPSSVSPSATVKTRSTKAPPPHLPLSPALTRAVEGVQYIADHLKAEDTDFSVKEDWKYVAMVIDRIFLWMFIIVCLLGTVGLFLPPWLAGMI
T5 sequence (P17787 26-502): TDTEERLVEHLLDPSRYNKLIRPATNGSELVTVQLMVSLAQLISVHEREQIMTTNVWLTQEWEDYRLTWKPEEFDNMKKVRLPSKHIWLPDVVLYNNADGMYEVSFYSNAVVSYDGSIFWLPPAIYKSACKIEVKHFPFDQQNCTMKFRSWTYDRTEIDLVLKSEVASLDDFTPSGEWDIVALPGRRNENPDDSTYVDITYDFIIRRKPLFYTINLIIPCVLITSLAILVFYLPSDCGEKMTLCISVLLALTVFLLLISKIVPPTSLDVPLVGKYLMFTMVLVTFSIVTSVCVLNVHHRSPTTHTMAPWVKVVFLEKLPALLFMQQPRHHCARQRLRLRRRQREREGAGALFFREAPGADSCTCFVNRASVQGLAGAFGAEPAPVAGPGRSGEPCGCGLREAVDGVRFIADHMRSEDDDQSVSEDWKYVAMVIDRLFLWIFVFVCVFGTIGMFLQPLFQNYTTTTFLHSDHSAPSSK
T4 sequence (P08172 whole entry): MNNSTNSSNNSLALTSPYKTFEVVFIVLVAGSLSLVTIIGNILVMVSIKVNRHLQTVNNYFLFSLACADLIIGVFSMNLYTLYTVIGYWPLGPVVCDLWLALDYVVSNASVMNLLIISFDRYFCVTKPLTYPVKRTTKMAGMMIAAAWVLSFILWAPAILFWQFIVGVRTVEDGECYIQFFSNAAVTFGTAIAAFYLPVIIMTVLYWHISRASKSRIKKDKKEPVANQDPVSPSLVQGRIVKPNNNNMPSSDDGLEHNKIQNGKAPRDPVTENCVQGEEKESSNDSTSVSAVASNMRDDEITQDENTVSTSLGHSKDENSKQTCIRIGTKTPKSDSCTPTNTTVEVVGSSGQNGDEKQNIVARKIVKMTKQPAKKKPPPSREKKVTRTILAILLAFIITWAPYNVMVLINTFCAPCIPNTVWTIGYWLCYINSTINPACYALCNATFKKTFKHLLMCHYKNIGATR

With `C=CCC1CCCC(CCC(=O)O)C1=C` (stereo not shown) [HU-MCA-13, 3-(3-allyl-2-methylenecyclohexyl)propanoic acid] the “bilirubin concentration versus DMSO” value [1] was “small significant increase”, the “blood count versus DMSO” value [1] was “No difference” and the “coagulation parameters versus DMSO” value [1] was “No difference”. The “electrolytes versus DMSO” value [1] was “No difference”, the “kidney and liver parameters versus DMSO” value [1] was “lack of differences” and the EC50 [2] was greater than 10 µM. It also gave an IC50 [2] greater than 10 µM, an EC50 [3] greater than 10 µM and an IC50 [3] greater than 10 µM. For the same compound, the EC50 ([4]; Agonist) was greater than 10 µM, the IC50 ([4]; Antagonist) was greater than 10 µM and the EC50 ([5]; Agonist) was greater than 10 µM. For the same compound, the IC50 ([5]; Antagonist) was greater than 10 µM, the inhibition at 10 µM (Cyclooxygenase 1 (COX 1); [15]) was 25% and the IC50 (Cyclooxygenase 1 (COX 1); [16]) was greater than 10 µM. It also gave an EC50 [6] greater than 10 µM, an IC50 [6] greater than 10 µM and an IC50 [7] greater than 10 µM. It also gave an EC50 [8] greater than 10 µM, an IC50 [8] greater than 10 µM and an EC50 ([9]; Agonist) greater than 10 µM. The IC50 ([9]; Antagonist) was greater than 10 µM, the IC50 ([10]; Blocker) was greater than 10 µM and the EC50 ([10]; Opener) was greater than 10 µM. For the same compound, the “neurite outgrowth total length” value [11] was 600 μm, the “neurons present at 3 h after plating that survived for 48 h” value [12] was 58 ± 10% and the inhibition at 10 µM (Cyclooxygenase 2 (COX 2); [15]) was 7.99%. For the same compound, the IC50 (Cyclooxygenase 2 (COX 2); [16]) was greater than 10 µM, the “increase of PGE2 production over control, untreated cultures” value [13] was 3–6 fold and the EC50 [14] was greater than 10 µM. It also gave an IC50 [14] greater than 10 µM.
